Reference: patent US11866416B2, “Streptococcus mutans glucosyl transferase inhibitors for dental caries therapy” (UAB Research Foundation, priority 2018, dated 2024)
In brackets after ≈: the same amount, converted by molar mass. Like-named read-outs stand apart in the source and are kept apart here.

Experiments:
S. mutans = assay: microbe, parasite or virus in culture; format: cell-based, Streptococcus mutans; settings: Streptococcus mutans, >300 = no inhibition up to 300 μM, read-out: Growth Inhibition MIC50
Description: Cell viability of S. mutans, S. gordonii, S. sanguinis, Aggregatibacter actinomycetemcomitans and Actinomyces. […] The number of colony-forming units (CFU) per milliliter of each sample treated with selected compounds at different concentrations was enumerated after incubation for 24 h at 37° C. and compared to the values obtained from the DMSO control group. Overnight broth cultures were transferred by 1:50 dilutions into fresh THB medium and were allowed to grow until mid-exponential phase (OD470 nm 0.6) before transfer to 96-well plates containing desired concentration of the compound. After 16 h incubation, bacterial growth was measured at OD470, and normalized to the DMSO control (100%).
Cell viability of S. mutans and commensal S. gordonii and S. sanguinis. Effects of lead small molecules on cell viability were examined. The number of colony-forming units (CFU) per milliliter for each compound at different concentrations was determined after incubation for 24 h at 37° C. and compared to the values obtained from the DMSO control group.
Cell viability of S. mutans and commensal S. gordonii and S. sanguinis. […] DMSO served as a control group and provided a relative comparison for the number of colony-forming units (CFU) per milliliter for each compound at different concentrations was determined after incubation for 24 h at 37° C. The final concentration of DMSO used in the assays was 1%.

S. mutans biofilm = S. mutans biofilm formation and inhibition assay (96-well plates, crystal violet); format: cell-based, Streptococcus mutans; settings: for IC50: Streptococcus mutans, read-out: Biofilm Inhibition IC50
Description: Biofilm assays using 96-well flat-bottom polystyrene microtiter plates were performed to evaluate S. mutans biofilm formation at various conditions as described (Liu et al. (2011) Antimicrobial Agents and Chemotherapy 55, 2679; Zhang et al. (2015) International Journal of Antimicrobial Agents 46, 174), the disclosures of which are incorporated herein by reference in their entirety). Each assay was replicated three times. Compounds that inhibited biofilm formation at minimum concentration (MBIC) were determined by serial dilutions.
S. mutans biofilm formation and inhibition assays. […] Each assay was replicated three times. Minimum biofilm inhibitory concentration (MBIC) of compounds was determined by serial dilutions.
S. mutans biofilm formation and inhibition assays. Biofilm assays using 96-well flat-bottom polystyrene microtiter plates were performed to evaluate S. mutans biofilm formation at various conditions as described. Each assay was replicated […]. Compounds that inhibited 50% biofilm formation were determined by serial dilutions.
S. mutans biofilm formation and inhibition assays. A well-established protocol to study S. mutans biofilm formation in 96-well flat-bottom polystyrene microtiter plates was used, in triplicate (Mattos-Graner, R. O.; Napimoga, M. H.; Fukushima, K.; Duncan, M. J.; Smith, D. J., Comparative analysis of Gtf isozyme production and diversity in isolates of Streptococcus mutans with different biofilm growth phenotypes. Journal of clinical microbiology 2004, 42 (10), 4586-4592). The stock solutions were made up in 100% DMSO, and final concentration of DMSO used in the assays was 1%. Minimum biofilm inhibitory concentration (MBIC) of compounds was determined by serial dilutions.

[1] = Table 1, >500 = no inhibition up to 500 μM
[2] = Table 5, >500 = no inhibition up to 500 μM

SMILES	MIC50 (S. mutans; Table 2) [µM]	IC50 (S. mutans biofilm; [1]) [µM]	IC50 (S. mutans biofilm; Table 2) [µM]	also measured
COC(=O)c1cccc(NC(=O)c2cnc3ccccc3c2)c1 [AA]	> 300	147	147	–
COC(=O)c1cccc(NC(=O)c2cc3cc([N+](=O)[O-])ccc3[nH]2)c1 [AB]	> 300	31.4	31.4	–
COC(=O)c1ccc(NC(=O)c2cc3cc([N+](=O)[O-])ccc3o2)cc1 [AC]	> 300	144	144	–
Cc1ccc(S(=O)(=O)Nc2cccc(NC(=O)c3cc4cc([N+](=O)[O-])ccc4s3)c2)cc1 [AD]	> 300	63.7	63.7	–
COC(=O)c1cccc(NC(=O)c2cc3cc([N+](=O)[O-])ccc3o2)c1 [AE]	> 300	2.7	2.7	–
NC(=O)c1ccccc1OC(=O)c1cc2ccccc2s1 [AF]	–	> 500	–	–
NC(=O)c1ccc(NC(=O)c2cc3cc([N+](=O)[O-])ccc3o2)cc1 [AG]	–	239	–	–
NCc1ccccc1NC(=O)c1ccc2ccccc2c1 [AH]	> 300	160	160	–
CC(C)(C)OC(=O)NCc1ccccc1NC(=O)c1cc2ccccc2s1 [AI]	> 300	43.4	43.4	–
CC(C)(C)OC(=O)NCc1ccccc1NC(=O)c1cc2cc([N+](=O)[O-])ccc2s1 [AJ]	> 300	51.5	51.5	–
CC(C)(C)OC(=O)NCc1ccccc1NC(=O)c1cnc2ccccc2c1 [AK]	> 300	52.8	52.8	–
NCc1ccccc1NC(=O)c1cnc2ccccc2c1 [AL]	> 300	136	136	–
NCc1ccccc1NC(=O)c1cc2cc([N+](=O)[O-])ccc2s1 [AM]	> 300	106	106	–
NCc1ccccc1NC(=O)c1cccc2ccccc12 [AN]	> 300	93.3	93.3	–
CC(C)(C)OC(=O)NCc1ccccc1NC(=O)c1ccc2ccccc2c1 [AO]	> 300	56.8	56.8	–
COc1cc(OC)c(-c2oc3ccccc3c(=O)c2O)cc1OC [AP-I-240]	–	–	–	MIC50 (S. mutans; Table 3, NI = no inhibition up to 400 μM): 15.3 ± 3 µM (≈ 5.02 µg/mL); IC50 (S. mutans biofilm; Table 3): 10.1 ± 1 µM
CC(C)(C)OC(=O)NCc1ccccc1NC(=O)c1ccc2ccccc2n1 [AP]	> 300	67.5	67.5	–
NC(=O)c1ccccc1OC(=O)c1ccc(-c2ccccc2)cc1 [AQ]	> 300	55.6	55.6	–
NC(=O)c1cccc(NC(=O)c2ccc(-c3ccccc3)cc2)c1 [AR]	> 300	79.9	79.9	–
NC(=O)c1ccccc1NC(=O)c1ccc2ccccc2c1 [AS]	–	84.1	–	–
NC(=O)c1cccc(NC(=O)c2ccc3ccccc3c2)c1 [AT]	> 300	67.7	67.7	–
NC(=O)c1ccccc1NC(=O)c1ccc(-c2ccccc2)cc1 [AU]	–	> 500	–	–
NC(=O)c1cccc(NC(=O)c2ccc3ccccc3n2)c1 [AV]	> 300	111	111	–
NC(=O)c1ccc(NC(=O)c2ccc3ccccc3c2)cc1 [AW]	–	> 500	–	–
NC(=O)c1ccccc1OC(=O)c1ccc2ccccc2c1 [AX]	> 300	98.3	98.3	–
NC(=O)c1ccccc1NC(=O)c1ccc2ccccc2n1 [AY]	–	> 500	–	–
COC(=O)c1ccccc1NC(=O)c1ccc2ccccc2c1 [AZ]	> 300	121	121	–

SMILES	MIC50 (S. mutans; Table 2) [µM]	IC50 (S. mutans biofilm; [1]) [µM]	IC50 (S. mutans biofilm; Table 2) [µM]	also measured
NC(=O)c1ccccc1OC(=O)c1cc2cc([N+](=O)[O-])ccc2o1 [BA]	–	279	–	–
COC(=O)c1ccccc1NC(=O)c1cc2cc([N+](=O)[O-])ccc2o1 [BB]	> 300	71.4	71.4	–
NC(=O)c1ccc(NC(=O)c2ccc3ccccc3n2)cc1 [BC]	> 300	54.4	54.4	–
COC(=O)c1ccccc1NC(=O)c1ccc2ccccc2n1 [BD]	> 300	89.5	89.5	–
COC(=O)c1ccccc1NC(=O)c1cc2ccccc2s1 [BE]	> 300	74.9	74.9	–
COC(=O)c1ccccc1NC(=O)c1cnc2ccccc2c1 [BF]	–	446	–	–
O=C(Nc1ccccc1I)c1cnc2ccccc2c1 [BG]	–	> 500	–	–
CCc1ccccc1NC(=O)c1cnc2ccccc2c1 [BH]	–	204	–	–
O=C(Nc1ccccc1Br)c1cc2cc([N+](=O)[O-])ccc2s1 [BI]	> 300	122	122	–
CC(C)c1ccccc1NC(=O)c1cc2cc([N+](=O)[O-])ccc2s1 [BJ]	–	262	–	–
CC(C)c1ccccc1NC(=O)c1cnc2ccccc2c1 [BK]	–	> 500	–	–
CCc1ccccc1NC(=O)c1cc2cc([N+](=O)[O-])ccc2s1 [BL]	> 300	158	158	–
NC(=O)c1cccc(NC(=O)c2ccc3ccccc3c2O)c1 [BP]	–	270	–	–
NC(=O)c1ccccc1NC(=O)c1cccc2ccccc12 [BQ]	–	446	–	–
Cc1ccc(S(=O)(=O)Nc2ccccc2N)cc1 [BU]	–	> 500	–	–
NC(=O)c1ccc(NC(=O)c2cc3cc([N+](=O)[O-])ccc3s2)cc1 [BV]	–	395	–	–
COc1ccc2[nH]c(C(=O)Nc3ccc(C(N)=O)cc3)cc2c1 [BY]	–	> 500	–	–
COC(=O)c1ccccc1NC(=O)c1cc2cc([N+](=O)[O-])ccc2s1 [Compound 3C]	–	> 500	–	–
O=C(Nc1ccccc1)c1cc2cc([N+](=O)[O-])ccc2s1 [Compound 3D]	–	> 500	–	IC50 (S. mutans biofilm; [2]): > 500 µM
NC(=O)c1ccccc1NC(=O)c1cc2ccccc2[nH]1 [Compound 3E]	–	> 500	–	–
NC(=O)c1ccccc1NC(=O)c1cc2cc([N+](=O)[O-])ccc2[nH]1 [Compound 3H]	–	> 500	–	–
O=C(Nc1ccccc1)c1cnc2ccccc2c1 [Compound 3L]	–	> 500	–	IC50 (S. mutans biofilm; [2]): > 500 µM
NC(=O)c1ccc(NC(=O)c2cnc3ccccc3c2)cc1 [Compound 3T]	–	> 500	–	–
COc1ccc(/C=C/C(=O)c2ccc3c(c2)OCO3)cc1O [Compound 14]	–	–	–	effect on S. mutans biofilm in the preliminary screen (S. mutans biofilm; chalcones, 200 μM): no anti-biofilm effects
O=c1c(O)c(-c2cc(O)c(O)c(O)c2)oc2cc(O)ccc12 [PAY]	–	–	–	IC50 (S. mutans biofilm; Table 3): 74.5 ± 9.8 µM
O=c1c(O)c(-c2ccc(O)cc2)oc2ccccc12 [SN-II-78]	–	–	–	IC50 (S. mutans biofilm; Table 3): 200 ± 10 µM
